The test system of this assay is CcaF. Description: In vitro CcaF leader peptide removal assay. The class given is biochemical, Chryseobacterium carnipullorum DSM25581. Particulars: substrate:CcaF 100:1 to 20:1; 50 mM Tris-HCl pH 8.0, RT overnight; MALDI-TOF MS. From the text:
To identify the position of each modification and characterize the final product, the leader peptide must be excised. To this end, we focused on the putative peptidase CcaF. The sequence of CcaF is annotated as a S8 (subtilisin type) serine protease and contains a classical Asp-His-Ser catalytic triad. Recombinant CcaF was heterologously expressed in E. coli BL21(DE3) and purified as a polyHis-tagged protein (Supplementary Fig. 7). […] Given the structural divergence amongst these modified peptides, CcaF appears to be a protease with a broad substrate scope.
The leader peptide was removed by protease CcaF. The reactions were performed in a 1.5 mL eppendorf tube with optimized ratio (100:1 to 20:1) of different substrates and CcaF in 50 mM Tris-HCl (pH =8.0) buffer at RT overnight. The substrates are different modified full length precursor peptide and synthetic 10-mer peptide. The reaction was monitored by MALDI-TOF MS, if the digestion was not completed, another 50:1 ratio CcaF protease was added and stay at RT for another 8 hours.

These results are taken from publication PMC10676384, “Core-dependent post-translational modifications guide the biosynthesis of a new class of hypermodified peptides” (Nature Communications, 2023).

For DELSATAAAA [10-mer peptide], the “cleavage by protease CcaF” value is recorded as “digested at the expected position”.
